In US20160115200A1, “New Use for JNK Inhibitor Molecules for Treatment of Various Diseases” (XIGEN INFLAMMATION LTD., priority 2013, published 2016):
Square brackets hold non-standard residues; d marks the D form. Ends that are not written are not given here.

Tests used:
[1] = test system: mouse model of scopolamine-induced dry eye; test: Scopolamine-induced dry eye in mice (TBUT, PRTT, histopathology); assay type: in vivo
From the text: The objective of this study was to assess the effects of two different compounds, the all-D-retro-inverso JNK-inhibitor (poly-)peptide of SEQ ID NO: 197 and the JNK inhibitor (poly-)peptide of SEQ ID NO: 172, at three dose levels in a mouse model of scopolamine-induced dry eye.
The study consisted of a total of 9 groups of female C57BL/6 mice, comprising 8 groups of 12 mice each and an additional group of 4 mice. Bilateral short-term dry eye was induced by a combination of scopolamine hydrobromide (Sigma-Aldrich Corp., St. Louis, Mo.) injection (subcutaneous (SC), four times daily, 0.5 mg/dose, Days 0-21) and by exposing mice to the drying environment of constant air draft. […] Mice of Group 9 were maintained as un-induced, (no dry eye) untreated controls.
During the in-life (treatment) period, clinical observations were recorded once daily; slit-lamp examination (SLE) with corneal fluorescein staining, tear break-up time test (TBUT), and phenol red thread test (PRTT) were performed three times per week. Necropsies were performed on Day 22; eyes, eye lids, conjunctivae, and lacrimal glands were collected from both eyes of each animal. Tissues from the right eyes (oculus dexter, OD) were fixed and then evaluated microscopically. Tissues from the left eyes (oculus sinister; OS) were flash-frozen in liquid nitrogen and stored frozen at −80° C. for possible subsequent analyses.
The TBUT test was conducted three times weekly by measuring the time elapsed in seconds between a complete blink after application of fluorescein to the cornea and the appearance of the first random dry spot in the tear film. […] At least ninety seconds later, corneal epithelial damage was graded using a slit-lamp with a cobalt blue filter after another drop of 0.1% fluorescein was reapplied to the cornea; the cornea then was scored per the Draize ocular scale.
Tear production was measured three times a week in both eyes using PRTT test strips (Zone-Quick; Menicon, Nagoya, Japan). Prior to the first treatment of the day, a thread was applied to the lateral canthus of the conjunctival fornix of each eye for 30 seconds under slit-lamp biomicroscopy. Tear migration up the tread (i.e., the length of the wetted cotton thread) was measured using a millimeter scale.
At necropsy on Day 22, both eyes from each animal, including the globes, lacrimal glands, eyelids, and conjunctivae, were excised. The right eye and associated tissues were fixed by overnight submersion in modified Davidson's solution followed by transfer to 10% neutral buffered formalin (NBF). The fixed tissues of the right eye were dehydrated, embedded in paraffin, sectioned at 3 to 5-μm thicknesses, and slide-mounted tissues were stained with hematoxylin and eosin (H & E). Stained slides were evaluated via light microscopy. Detailed and complete histopathologic assessment was conducted on all parts of the eye, with at least two section levels being examined histopathologically for each right eye. Special attention was paid to the cornea, epithelia (including goblet cells) of the conjunctiva and cornea, as well as the lacrimal gland. These tissues were scored for injury based upon a 0-4 scale, with 0 being normal, 1 being minimal, 2 being mild, 3 being moderate, and 4 being severe. For each cornea, scores were based on corneal epithelium thickness, and corneal inflammation. Conjunctivae were scored for erosion and inflammation as well as presence or absence of goblet cells.

[2] = test system: endotoxins-induced uveitis albino rat model; test: Endotoxins-induced uveitis (EIU), single intravenous injection, clinical scoring 24 h after LPS; assay type: in vivo; parameters: key to EIU clinical score, median: clinical score per eye, 0 to 4 scale
Protocol: The aim of this study was to determine the effects of single intravenous injections of SEQ ID NO: 172 (0.015, 0.18, and 1.80 mg/kg) on the inflammatory response in an endotoxins-induced uveitis albino rat model and to compare these affects to those obtained with prior art JNK inhibitor of SEQ ID NO: 197 (2 mg/kg). As a further control served phosphate sodic dexamethasone.
Sixty (60) male Lewis rats were randomly divided into six (6) groups of ten (10) animals each. EIU was induced by footpad injection of lipopolysaccharide (LPS, 1 mg/kg). NaCl (0.9%), SEQ ID NO: 197 at 2 mg/kg and SEQ ID NO: 172 at three concentrations (1.80 mg/kg, 0.18 mg/kg and 0.015 mg/kg) were administered by intravenous injection. Phosphate sodic dexamethasone (20 μg/eye) was administered by sub-conjunctival injection in both eyes. 24 hours after LPS injection, inflammatory response was evaluated by clinical scoring.
The intensity of clinical ocular inflammation was scored on a scale from 0 to 4 for each eye: […]

[3] = test system: primary rat lymph-nodes purified T cells; test: CD3/CD28-induced IL-2 release in primary rat lymph-nodes purified T cells; assay type: cell-based; settings: inhibitor 1 h before CD3/CD28 (2 μg/mL), supernatant after 24 h
Protocol: Control rat were sacrificed and lymph-nodes were harvested. T cells further were purified (using magnetic negative selection) and plated into 96-well plates at 200.000 cells/well. Cells were treated with anti-rat CD3 and anti-rat CD28 antibodies (2 μg/mL). JNK inhibitor with SEQ ID NO: 172 was added to the cultures 1 h before CD3/CD28 treatment and IL-2 release was assessed in supernatant 24 h after treatment.
Control animal were sacrificed, lymph nodes (LN) were harvested and kept in complete RPMI medium. LN were smashed with complete RPMI on 70 μm filter using a 5 ml piston. A few drops of media were added to keep strainer wet. Cells were centrifuged for 7 min at 450 g and 4° C. Pellet was resuspended in 5 ml fresh medium. Cells were passed again through cell strainer. An aliquot of cells was counted, while cells were centrifuged again 10 min at 1400 rpm and 4° C. Cells were resupended in MACS buffer (80 μl of MACS buffer per 10^7 cells). 10 μl of anti-rat MHC microbeads were added per 10 million cells, cells were incubated for 15 min at 4°-8° C. Cells were washed with 15 ml MACS buffer and centrifuge for 7 min at 700 g and 4° C. […] Resuspended cells were counted and plated at density of 200000 cells/well in 100 μl of complete medium. […] Cytokines were then measured using standard Elisa kits. Results are expressed as pg/ml of supernatant of the measured cytokine. […]

[4] = 2 mg/kg i.v., 24 hours after LPS

dqsrpvqpflnlttprkprpprrrqrrkkrg ([dD][dQ][dS][dR][dP][dV][dQ][dP][dF][dL][dN][dL][dT][dT][dP][dR][dK][dP][dR][dP][dP][dR][dR][dR][dQ][dR][dR][dK][dK][dR]G) [SEQ ID NO: 197, reference compound]
Mean PRTT AUC ([1]; Day 7-21, high dose 0.6% (SEQ ID NO: 197 Group 4; SEQ ID NO: 172 Group 7)): 43.17
Mean PRTT AUC ([1]; Day 7-21, low dose (SEQ ID NO: 197 0.06% Group 2; SEQ ID NO: 172 0.05% Group 5)): 39.96
Mean PRTT AUC ([1]; Day 7-21, mid dose (SEQ ID NO: 197 0.25% Group 3; SEQ ID NO: 172 0.2% Group 6)): 42.79
Mean Calculated TBUT AUC ([1]; Day 7 to Day 21, high dose 0.6% (SEQ ID NO: 197 Group 4; SEQ ID NO: 172 Group 7)): 89.98
Mean Calculated TBUT AUC ([1]; Day 7 to Day 21, low dose (SEQ ID NO: 197 0.06% Group 2; SEQ ID NO: 172 0.05% Group 5)): 88.54
Mean Calculated TBUT AUC ([1]; Day 7 to Day 21, mid dose (SEQ ID NO: 197 0.25% Group 3; SEQ ID NO: 172 0.2% Group 6)): 91.19
PRTT change with dose ([1]; SEQ ID NO: 197 0.06%, 0.25% and 0.6%, Groups 2, 3 and 4): generally dose-dependent increases in PRTT
TBUT change with dose ([1]; SEQ ID NO: 197 low, mid and high dose (Groups 2-4)): slight generally dose-dependent increases in TBUT
corneal changes (histology) compared with other treatment groups ([1]; low dose SEQ ID NO: 197 (Group 2)): slightly more severe
histological cornea scores compared with cyclosporine group ([1]; mid and high-dose SEQ ID NO: 172 (Groups 6, 7), high-dose SEQ ID NO: 197 (Group 4)): not significantly different than the cyclosporine group scores
EIU clinical score, median [2, 4]: 2
decrease of EIU scores compared with vehicle group [2, 4]: 40%
EIU clinical score, mean±SEM ([2]; 2 mg/kg i.v., 24 hours after LPS, scale 0 to 4 (+1)): 2.2±0.3
endotoxin-induced inflammation in the anterior chamber ([2]; single intravenous injection 2 mg/kg): partially prevented the endotoxin-induced inflammation
CD3/CD28-induced IL-2 release [3]: Dose-dependent inhibition
